Values of other authors as cited in patent US5525347A, “Composition and methods for treating performance anxiety” (Medical University of South Carolina, priority 1995, dated 1996).
Where a name gives a salt, the structure may show the parent alone.

Key:
[1] = tested on: social phobia; details: case reports; 10-120 mg
[2] = not given; remark: listed apart in the source

## CC(C)NCC(O)COc1cccc2ccccc12 (stereo not shown) [Propranolol Hydrochloride, 1-(Isopropylamino)-3-(1-napthyloxy)-2-propanol hydrochloride]
[1]
  efficacy in social phobia: suggest efficacy
chloroform
  Solubility in chloroform: slightly soluble
ether
  Solubility in ether: practically insoluble
Volume of alcohol for 1 g
  Solubility in alcohol: 20 mL
Volume of water for 1 g
  Solubility in water: 20 mL
[2]; heat
  stability to heat: stable to heat
[2]; light
  stability in light: unstable in light
